This note sets out measurements from US7732452B2, “Thiophene derivatives which are HM74A agonists” (Hoffmann-La Roche Inc., priority 2005, dated 2010).

Broadly, the EC50 is the midpoint of the concentration-response curve. The term melting point denotes the temperature, or range, at which the solid turns liquid.

T1 sequence (Q8TDS4 whole entry): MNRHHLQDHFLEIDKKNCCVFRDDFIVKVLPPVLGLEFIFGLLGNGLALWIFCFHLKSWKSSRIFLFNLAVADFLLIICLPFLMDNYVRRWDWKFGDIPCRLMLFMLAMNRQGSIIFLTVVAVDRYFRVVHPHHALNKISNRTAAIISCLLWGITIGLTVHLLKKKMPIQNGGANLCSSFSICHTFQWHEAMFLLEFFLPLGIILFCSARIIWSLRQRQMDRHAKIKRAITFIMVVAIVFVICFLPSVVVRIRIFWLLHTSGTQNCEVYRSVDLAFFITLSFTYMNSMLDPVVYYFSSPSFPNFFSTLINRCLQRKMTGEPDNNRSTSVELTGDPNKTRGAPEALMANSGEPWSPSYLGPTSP

The first data set addresses T1, HM74A (Homo sapiens, UniProt Q8TDS4).
T1 construct: expressed in transfected cells; pcDNA3.1 vectors; co-expressing chimeric G protein Gqi9
The data set can be described thus: Secondary fluorescent calcium indicator assay (FLIPR). Format: cell-based. The note with it: HEK-293 cells stably expressing HM74A and chimeric G protein Gqi9; % stimulation of maximal nicotinic acid response (100 μM). On the procedure:
Secondary Fluorescent Calcium Indicator Assay (FLIPR)
HEK-293 cells were grown in tissue culture medium (DMEM/Nut mix F12 Medium with Glutamax I (Invitrogen), containing 10% FBS) at 37° C. in a 5% CO2 atmosphere. These cells were cultured in 6-well dishes at 3×10^5 cells/well and double transfected with DNA vectors (pcDNA3.1, Invitrogen) expressing either HM74A or HM74 and the chimeric G protein Gqi9. Two days after transfection the wells were combined and plated in 150 cm^2 flasks, in the presence of 50 μg/ml Hygromycin (Invitrogen) and 500 μg/ml Geneticin (Gibco). Fourteen days after plating, colonies were picked, expanded and analyzed for expression using a functional assay (FLIPR). Stable transfected HEK-293 cells expressing either HM74A or HM74 and the chimeric G protein Gqi9 were plated at 50,000 cells/well in black 96-well plates with clear bottom (Costar) and cultured to confluency overnight in growth media (DMEM/Nut mix F12 Medium with Glutamax I (Invitrogen), containing 10% FBS) at 37° C. in a humidified cell incubator containing 5% CO2. Growth media was aspirated and replaced with 100 μl of 1×FLIPR Calcium Assay Dye (Molecular Devices) in Hank's balanced salt solution (HBSS) containing 10 mM HEPES, and […] probenecid (Sigma), for 1 hour at 37° C. Cell plates were transferred to a FLIPR unit (Molecular Devices), and 50 μl of 3× compound dilution were added. Fluorescence emissions were measured and the effects of compounds were expressed as % stimulation of maximal nicotinic acid response (100 μM). Sigmoidal curves were fitted using the XLfit3 program (ID Business Solutions Ltd. UK) and EC50 values determined.
As to `CC(C)(C)c1ccc(OCC(=O)Nc2cscc2C(=O)O)cc1` [Example 23, 4-[2-(4-tert-Butyl-phenoxy)-acetylamino]-thiophene-3-carboxylic acid], the concentration giving a half-maximal response (EC50) came out at 225 nM.
For `O=C(COc1ccc(-c2ccc(F)cc2)cn1)Nc1cscc1C(=O)O` [Example 11, 4-{2-[5-(4-Fluoro-phenyl)-pyridin-2-yloxy]-acetylamino}-thiophene-3-carboxylic acid], the EC50 was 131 nM.
For `O=C(COc1ccc(-c2ccccc2)cc1)Nc1cscc1C(=O)O` [Example 2, 4-[2-(Biphenyl-4-yloxy)-acetylamino]-thiophene-3-carboxylic acid], the EC50 came out at 48.7 nM.

Tested on in the next data set: not given
Assay: not given
Conditions: not given
As for `COc1ccccc1-c1ccc(OCC(=O)Nc2cscc2C(=O)O)cc1` [Example 3, 4-[2-(2′-Methoxy-biphenyl-4-yloxy)-acetylamino]-thiophene-3-carboxylic acid], the melting point lay in the range of 196 to 199 °C.
On to `Cc1ccccc1-c1ccc(OCC(=O)Nc2cscc2C(=O)O)cc1` [Example 5, 4-[2-(2′-Methyl-biphenyl-4-yloxy)-acetylamino]-thiophene-3-carboxylic acid], for which the melting point is 207 to 209 °C.
Regarding `CC(=O)c1cccc(-c2ccc(OCC(=O)Nc3cscc3C(=O)O)cc2)c1` [Example 8, 4-[2-(3′-Acetyl-biphenyl-4-yloxy)-acetylamino]-thiophene-3-carboxylic acid], the melting point was 212 to 214 °C.
On to `COc1ccccc1-c1ccc(OCC(=O)Nc2cscc2C(=O)O)nc1` [Example 10, 4-{2-[5-(2-Methoxy-phenyl)-pyridin-2-yloxy]-acetylamino}-thiophene-3-carboxylic acid], for which the melting point lay in the range of 194 to 197 °C.
On the same count and under the same terms, the same measure for `CC(=O)Nc1cccc(-c2ccc(OCC(=O)Nc3cscc3C(=O)O)cc2)c1` [Example 6, 4-[2-(3′-Acetylamino-biphenyl-4-yloxy)-acetylamino]-thiophene-3-carboxylic acid]: 250 to 253 °C; for `O=C(COc1ccc(Cl)c(Cl)c1)Nc1cscc1C(=O)O` [Example 18, 4-[2-(3,4-Dichloro-phenoxy)-acetylamino]-thiophene-3-carboxylic acid]: 258 to 264 °C; for `O=C(COc1ccc(-c2ccccc2Cl)cn1)Nc1cscc1C(=O)O` [Example 19, 4-{2-[5-(2-Chloro-phenyl)-pyridin-2-yloxy]-acetylamino}-thiophene-3-carboxylic acid]: 218 to 223 °C.
In the case of `COc1cccc(-c2ccc(OCC(=O)Nc3cscc3C(=O)O)cc2)c1` [Example 7, 4-[2-(3′-Methoxy-biphenyl-4-yloxy)-acetylamino]-thiophene-3-carboxylic acid], the melting point was 187 to 189 °C.
Consider `O=C(COc1ccc(-c2ccc(F)cc2)cc1)Nc1cscc1C(=O)O` [Example 1, 4-[2-(4′-Fluoro-biphenyl-4-yloxy)-acetylamino]-thiophene-3-carboxylic acid], for which the melting point lay within 244 to 251 °C.
Molecule `O=C(COc1ccc(-c2cccc(Cl)c2)cc1)Nc1cscc1C(=O)O` [Example 4, 4-[2-(3′-Chloro-biphenyl-4-yloxy)-acetylamino]-thiophene-3-carboxylic acid] registered a melting point of 216 to 218 °C.
On to `O=C(COc1ccc(-c2ccccc2)cc1)Nc1cscc1C(=O)O` [Example 2, 4-[2-(Biphenyl-4-yloxy)-acetylamino]-thiophene-3-carboxylic acid], for which the melting point lay within 247 to 251 °C.
